Test results from ChEMBL document CHEMBL1201862, “PubChem BioAssay data set” (2004).
Several values for one entry are separate records, joined by “and”; a condition that tells them apart may be missing. Equal entries are not always repeated.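 Dose response: 5 concentrations. Exposure: 48 h. Format: 96-well plates. Endpoint: linear interpolation; highest concentration if not reached. GI50 is the concentration that inhibits growth by half.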 Activity calls are given as the source filed them. No stated cut-off is given here; in the data, active = GI50 up to about 1.1 µM and inactive = higher.

How the values were obtained:
Test in all cases: NCI tumour cell line growth inhibition, 48 h
[1] = tested on: DU-145
[2] = tested on: MDA-MB-231
[3] = tested on: M14
[4] = tested on: T47D
[5] = tested on: MCF7
[6] = tested on: Hs-578T
[7] = tested on: PC-3
[8] = tested on: TK-10
[9] = tested on: ACHN
[10] = tested on: SR
[11] = tested on: RXF 393
[12] = tested on: MDA-MB-435
[13] = tested on: NCI/ADR-RES
[14] = tested on: BT-549
[15] = tested on: A498
[16] = tested on: M19-MEL
[17] = tested on: NCI-H226
[18] = tested on: DLD-1
[19] = tested on: HCC 2998

Measured: GI50

COc1ccc(-c2c3c(nc4nc(SCC(=O)c5ccc(Br)cc5)nc(N)c24)CCCC3)cc1OC
inactive: [1] > 100 µM | [2] 26.9 µM | [3] 41.9 µM | [4] 73.6 µM | [5] > 100 µM | [6] 15.3 µM | [7] > 100 µM | [8] > 100 µM | [9] > 100 µM | [10] > 100 µM | [11] 19.3 µM | [12] > 100 µM | [13] 74.5 µM | [14] 80 µM

COc1ncnc2c(Cl)c(C(O)c3ccccc3)c(Cl)cc12 (configuration not stated)
inactive: [15] 19.7 µM | [1] 60.4 µM | [2] 18.6 µM | [3] 23.9 µM | [4] 40.1 µM | [5] 31.4 µM | [6] 19.6 µM | [7] 27.4 µM | [8] 23 µM | [9] 26.4 µM | [10] 3.5 µM | [11] 15.5 µM | [12] 5.57 µM | [13] 28 µM | [14] 20.6 µM

COc1ccc(/C=N/n2cnc3c(c2=O)SC(=C(C#N)C#N)N3c2ccccc2)cc1
inactive: [16] > 100 µM | [17] > 100 µM | [8] > 100 µM | [9] > 100 µM | [10] > 100 µM | [18] > 100 µM | [19] > 100 µM

COc1cc(C(O)(CC#N)c2cc3c(cc2Br)OCO3)cc(OC)c1OC (configuration not stated)
inactive: [1] 33.5 µM | [2] 21.4 µM | [3] 4.62 µM | [4] > 100 µM | [5] 14.7 µM | [17] 30.8 µM | [7] 28.1 µM | [8] 42.8 µM | [9] 92.7 µM | [11] 17.2 µM | [12] 3 µM | [13] 40 µM | [14] > 100 µM | [19] 24 µM

CNNC1=NS(=O)(=O)c2cc(C)c(Cl)cc2S1
inactive: [15] > 10 µM | [1] > 10 µM | [2] > 10 µM | [3] > 10 µM | [4] > 10 µM | [17] > 10 µM | [6] > 10 µM | [7] > 10 µM | [8] > 10 µM | [9] > 10 µM | [11] > 10 µM | [12] > 10 µM | [13] > 10 µM | [14] > 10 µM | [19] > 10 µM

OC(c1ccc(Br)cc1)(c1cccs1)C1CC1 (configuration not stated)
inactive: [15] 21.5 µM | [1] 26.1 µM | [2] 18.3 µM | [3] 21.1 µM | [4] 22.8 µM | [5] 28.2 µM | [6] 22.3 µM | [7] 22.8 µM | [8] 27.9 µM | [9] 27 µM | [11] 18.6 µM | [12] 18.1 µM | [13] 25.1 µM | [14] 24.4 µM | [19] 23.6 µM

CCOC(=O)/C(C#N)=C\c1ccc(N(CCC(=O)O)CCC(=O)O)c(I)c1
inactive: [1] > 10 µM | [2] > 10 µM | [3] > 10 µM | [4] > 10 µM | [5] > 10 µM | [17] > 10 µM | [6] > 10 µM | [7] > 10 µM | [8] > 10 µM | [9] > 10 µM | [10] > 10 µM | [11] > 10 µM | [12] > 10 µM | [13] > 10 µM | [14] > 10 µM | [19] > 10 µM

COc1ccccc1/C=C1\Sc2scc(-c3cccc([N+](=O)[O-])c3)[n+]2C1=O
inactive: [15] 21.3 µM | [1] 13.5 µM | [2] 5.04 µM | [3] 3.93 µM | [4] 7.23 µM | [5] 2 µM | [17] 12.4 µM | [6] 18.5 µM | [7] 15.7 µM | [8] 2.83 µM | [9] 3.06 µM | [10] 2.19 µM | [11] 4.58 µM | [12] 4.99 µM | [13] 6.84 µM | [14] 2.55 µM | [19] 10.4 µM

O=[N+]([O-])c1ccc(-c2nc(/C=N/N3CCCCC3)cs2)o1
inactive: [1] > 100 µM | [2] 48.4 µM | [3] 37.4 µM | [4] 90.2 µM | [5] 38.6 µM | [17] > 100 µM | [6] > 100 µM | [7] > 100 µM | [8] > 100 µM | [9] > 100 µM | [10] 30.9 µM | [11] > 100 µM | [12] 27.7 µM | [13] 74.8 µM | [14] 92.5 µM

CCCCc1ccc(N2C(=O)c3cc([N+](=O)[O-])cnc3S2(=O)=O)cc1
inactive: [15] > 100 µM | [2] > 100 µM | [3] > 100 µM | [4] > 100 µM | [5] 59.8 µM | [17] > 100 µM | [6] > 100 µM | [7] > 100 µM | [8] > 100 µM | [9] > 100 µM | [10] 43.3 µM | [12] > 100 µM | [13] 25.2 µM | [14] 87.7 µM | [19] > 100 µM

CCOC(=O)c1c(CN2CCNCC2)nc2ccccc2c1-c1ccccc1
inactive: [15] 14.6 µM | [1] 17.5 µM | [2] 15.6 µM | [3] 13.4 µM | [4] 13.9 µM | [5] 14.3 µM | [17] 18.6 µM | [6] 16.1 µM | [7] 13.4 µM | [8] 14.3 µM | [9] 16.8 µM | [11] 2.92 µM | [12] 14.3 µM | [13] 16.2 µM | [14] 17.2 µM | [19] 1.9 µM

COC(=O)/C=C\Sc1ccn(/C=C\C(=O)OC)c(=S)n1
inactive: [15] 20.2 µM | [1] > 100 µM | [2] 26.1 µM | [3] 49.9 µM | [4] 18.4 µM | [5] 14.3 µM | [6] 25.5 µM | [7] 19.1 µM | [8] 27.9 µM | [9] 18.2 µM | [10] 13.7 µM | [11] 10.5 µM | [12] 23.1 µM | [13] 19.6 µM | [14] 22.9 µM | [19] 37.1 µM

Cc1occc1C(=S)Nc1ccc(Cl)c(C(=O)OCC(C)C)c1
inactive: [15] 15.9 µM | [1] 18.3 µM | [2] 16.6 µM | [3] 22.8 µM | [4] 12.8 µM | [5] 14.6 µM | [17] 15.3 µM | [6] 25.1 µM | [7] 16.1 µM | [8] 17.3 µM | [9] 17.9 µM | [12] 16.5 µM | [13] 12.9 µM | [14] 17.2 µM | [19] 18.9 µM

CC(Oc1ccc(Oc2cnc3ccc(Cl)cc3n2)cc1)C(=O)O (configuration not stated)
inactive: [15] > 80.4 µM | [1] > 88.9 µM | [2] > 100 µM | [3] > 100 µM | [4] 92 µM and 64.4 µM | [5] 37.3 µM and 84.3 µM | [6] > 88.1 µM | [8] > 100 µM | [9] 60.5 µM | [10] > 44.5 µM | [11] > 100 µM | [14] > 80.2 µM
